≈ marks a conversion by molar mass, not a printed value. Like-named read-outs stand apart in the source and are kept apart here.
Tests used:
Assay type in all cases: cell-based
[1] = tested on: Staphylococcus aureus 53154 IP; test: In vitro antibacterial activity, MIC, Staphylococcus aureus 53154 IP; details: Staphylococcus aureus 53154 IP, 37° C., pH=7.4, inoculum 10^4
Experimental: (§1) Tests carried out in vitro in accordance with the experimental procedure described hereunder have provided evidence of the antibacterial activity in question.
(§2) For this purpose, the M.I.C. were determined i.e. the minimal inhibiting concentrations of the compound under study acting on the growth of the bacteria at 37° C.
(§3) The serial dilutions method was used utilizing a MUELLER HINTON gelose medium at pH=7.4 and a bacterial inoculum of 10^4 units forming colonies. This inoculum was applied to the gelose by means of a multiple sowing device.
(§4) A scale of concentrations ranging from 100 to 0.05 μg/ml of compound to be studied was used starting from mother solutions titrating 1000 μg/ml, all the subsequent dilutions being effected in distilled water.

[2] = tested on: Streptococcus faecalis 5855 IP; test: In vitro antibacterial activity, MIC, Streptococcus faecalis 5855 IP; details: 37° C.
Experimental: as §1, §2, §3, §4

[3] = tested on: Escherichia coli 54127 IP; test: In vitro antibacterial activity, MIC, Escherichia coli 54127 IP
Experimental: as §1, §2, §3, §4

[4] = tested on: Escherichia coli SOL RL 90; test: In vitro antibacterial activity, MIC, Escherichia coli SOL RL 90
Experimental: as §1, §2, §3, §4

[5] = tested on: Citrobacter freundii GN 346; test: In vitro antibacterial activity, MIC, Citrobacter freundii GN 346
Experimental: as §1, §2, §3, §4

[6] = tested on: Proteus vulgaris RL 99 bis; test: In vitro antibacterial activity, MIC, Proteus vulgaris RL 99 bis
Experimental: as §1, §2, §3, §4

[7] = tested on: Proteus mirabilis ATCC 21100; test: In vitro antibacterial activity, MIC, Proteus mirabilis ATCC 21100
Experimental: as §1, §2, §3, §4

Proteus morganii 1510 = test: In vitro antibacterial activity, MIC, Proteus morganii 1510
Experimental: as §1, §2, §3, §4

[8] = tested on: Providencia stuartii 5158; test: In vitro antibacterial activity, MIC, Providencia stuartii 5158
Experimental: as §1, §2, §3, §4

[9] = tested on: Serratia liquefaciens 376; test: In vitro antibacterial activity, MIC, Serratia liquefaciens 376; details: 37° C.
Experimental: as §1, §2, §3, §4

[10] = tested on: Klebsiella pneumoniae ATCC 10031; test: In vitro antibacterial activity, MIC, Klebsiella pneumoniae ATCC 10031
Experimental: as §1, §2, §3, §4

[11] = tested on: Klebsiella pneumoniae R 30; test: In vitro antibacterial activity, MIC, Klebsiella pneumoniae R 30
Experimental: as §1, §2, §3, §4

[12] = tested on: Enterobacter cloacae P 99; test: In vitro antibacterial activity, MIC, Enterobacter cloacae P 99
Experimental: as §1, §2, §3, §4

[13] = tested on: Enterobacter hafniae RO 46; test: In vitro antibacterial activity, MIC, Enterobacter hafniae RO 46
Experimental: as §1, §2, §3, §4

Shigella sonnei R 018 = test: In vitro antibacterial activity, MIC, Shigella sonnei R 018; details: R018, 37° C., pH=7.4, inoculum 10^4
Experimental: as §1, §2, §3, §4

[14] = tested on: Salmonella typhimurium A 222 IP; test: In vitro antibacterial activity, MIC, Salmonella typhimurium A 222 IP
Experimental: as §1, §2, §3, §4

[15] = tested on: Salmonella typhi ATCC 6539; test: In vitro antibacterial activity, MIC, Salmonella typhi ATCC 6539
Experimental: as §1, §2, §3, §4

[16] = tested on: Bordetella bronchiseptica ATCC 4617; test: In vitro antibacterial activity, MIC, Bordetella bronchiseptica ATCC 4617
Experimental: as §1, §2, §3, §4

[17] = tested on: Pseudomonas aeruginosa 8203; test: In vitro antibacterial activity, MIC, Pseudomonas aeruginosa 8203; details: 37° C.
Experimental: as §1, §2, §3, §4

[18] = tested on: Acinetobacter calcoaceticus C 1733; test: In vitro antibacterial activity, MIC, Acinetobacter calcoaceticus C 1733
Experimental: as §1, §2, §3, §4

[19] = tested on: Bacillus subtilis ATCC 6633; test: In vitro antibacterial activity, MIC, Bacillus subtilis ATCC 6633; details: Bacillus subtilis ATCC 6633; 37° C., pH=7.4, inoculum 10^4
Experimental: as §1, §2, §3, §4

[20] = Enterococcus faecalis, pH=7.4, inoculum 10^4, read-out: MIC
[21] = pH=7.4, inoculum 10^4, read-out: MIC
[22] = ATCC4617, 37° C., pH=7.4, inoculum 10^4, read-out: MIC
[23] = C1733, 37° C., pH=7.4, inoculum 10^4, read-out: MIC
[24] = SOLRL90, Escherichia coli SOL RL 90, 37° C., pH=7.4, inoculum 10^4, read-out: MIC
[25] = GN346, Citrobacter freundii GN 346, 37° C., pH=7.4, inoculum 10^4, read-out: MIC
[26] = ATCC21100, Proteus mirabilis ATCC 21100, 37° C., pH=7.4, inoculum 10^4, read-out: MIC
[27] = Providencia stuartii 5158, 37° C., pH=7.4, inoculum 10^4, read-out: MIC
[28] = ATCC10031, Klebsiella pneumoniae ATCC 10031, 37° C., pH=7.4, inoculum 10^4, read-out: MIC
[29] = R30, Klebsiella pneumoniae R 30, 37° C., pH=7.4, inoculum 10^4, read-out: MIC
[30] = Salmonella enterica, Salmonella typhimurium A 222 IP, 37° C., pH=7.4, inoculum 10^4, read-out: MIC

SMILES	MIC ([1]; read-out: MIC)	MIC [2, 20]	MIC ([3]; Escherichia coli, 54127IP)	MIC ([6]; Proteus vulgaris, RL99BIS)	MIC (Proteus morganii 1510; Morganella morganii, 1510)	MIC [9, 21]	MIC ([12]; Enterobacter cloacae, P99)	MIC ([13]; Hafnia alvei, RO46)	MIC (Shigella sonnei R 018)	MIC ([15]; Salmonella enterica)	MIC [16, 22]	MIC [17, 21]	MIC [18, 23]	MIC [4, 24]	MIC [5, 25]	MIC [7, 26]	MIC [8, 27]	MIC [10, 28]	MIC [11, 29]	MIC [14, 30]	other results
CCn1cc(C(=O)O)c(=O)c2cc(C=NO)sc21 [Compound A, 4,7-Dihydro-7-ethyl-2-hydroxyiminomethyl-4-oxo-thieno[2,3-b]pyridine-5-carboxylic acid]	25 µg/mL (≈ 93.9 µM)	> 100 µg/mL	3.12 µg/mL (≈ 11.7 µM)	1.56 µg/mL (≈ 5.86 µM)	1.56 µg/mL (≈ 5.86 µM)	100 µg/mL (≈ 376 µM)	6.25 µg/mL (≈ 23.5 µM)	1.56 µg/mL (≈ 5.86 µM)	1.56 µg/mL (≈ 5.86 µM)	6.25 µg/mL (≈ 23.5 µM)	> 100 µg/mL	50 µg/mL (≈ 188 µM)	> 100 µg/mL								MIC ([4]; Escherichia coli, SOLRL90): 6.25 µg/mL (≈ 23.5 µM); MIC ([5]; Citrobacter freundii, GN346): 6.25 µg/mL (≈ 23.5 µM); MIC ([7]; Proteus mirabilis, ATCC21100): 1.56 µg/mL (≈ 5.86 µM); MIC ([8]; Providencia stuartii, 5158): 6.25 µg/mL (≈ 23.5 µM); MIC ([10]; Klebsiella pneumoniae, ATCC10031): 1.56 µg/mL (≈ 5.86 µM); MIC ([11]; Klebsiella pneumoniae, R30): 6.25 µg/mL (≈ 23.5 µM); MIC ([14]; Salmonella enterica, TYPHIMURIUM): 6.25 µg/mL (≈ 23.5 µM)
CCn1cc(C(=O)O)c(=O)c2cc(C=NOC)sc21 (single isomer, unassigned) [Compound H, 4,7-Dihydro-7-ethyl-2-methoxyiminomethyl-4-oxo-thieno[2,3-b]pyridine-5-carboxylic acid, anti-isomer]																					MIC [1]: > 50 µg/mL; MIC ([2]; pH=7.4, inoculum 10^4): > 100 µg/mL; MIC [19]: 0.8 µg/mL (≈ 2.85 µM); MIC ([3]; Escherichia coli 54127 IP, 37° C., pH=7.4, inoculum 10^4): 1.56 µg/mL (≈ 5.57 µM); MIC ([4]; Escherichia coli SOL RL 90, 37° C., pH=7.4, inoculum 10^4): 6.25 µg/mL (≈ 22.3 µM); MIC ([5]; Citrobacter freundii GN 346, 37° C., pH=7.4, inoculum 10^4): 6.25 µg/mL (≈ 22.3 µM); MIC ([6]; Proteus vulgaris RL 99 bis, 37° C., pH=7.4, inoculum 10^4): 1.56 µg/mL (≈ 5.57 µM); MIC ([7]; Proteus mirabilis ATCC 21100, 37° C., pH=7.4, inoculum 10^4): 0.8 µg/mL (≈ 2.85 µM); MIC (Proteus morganii 1510; Proteus morganii 1510, 37° C., pH=7.4, inoculum 10^4): 0.8 µg/mL (≈ 2.85 µM); MIC ([8]; Providencia stuartii 5158, 37° C., pH=7.4, inoculum 10^4): 6.25 µg/mL (≈ 22.3 µM); MIC ([9]; pH=7.4, inoculum 10^4): > 25 µg/mL; MIC ([10]; Klebsiella pneumoniae ATCC 10031, 37° C., pH=7.4, inoculum 10^4): 0.4 µg/mL (≈ 1.43 µM); MIC ([11]; Klebsiella pneumoniae R 30, 37° C., pH=7.4, inoculum 10^4): 6.25 µg/mL (≈ 22.3 µM); MIC ([12]; Enterobacter cloacae P 99, 37° C., pH=7.4, inoculum 10^4): 3.12 µg/mL (≈ 11.1 µM); MIC ([13]; Enterobacter hafniae RO 46, 37° C., pH=7.4, inoculum 10^4): 3.12 µg/mL (≈ 11.1 µM); MIC ([14]; Salmonella typhimurium A 222 IP, 37° C., pH=7.4, inoculum 10^4): 12.5 µg/mL (≈ 44.6 µM); MIC ([15]; Salmonella typhi ATCC 6539, 37° C., pH=7.4, inoculum 10^4): 25 µg/mL (≈ 89.2 µM); MIC ([16]; 37° C., pH=7.4, inoculum 10^4): > 25 µg/mL; MIC ([17]; pH=7.4, inoculum 10^4): > 25 µg/mL; MIC ([18]; 37° C., pH=7.4, inoculum 10^4): > 25 µg/mL
CCn1cc(C(=O)O)c(=O)c2cc([N+](=O)[O-])sc21 [Compound Y, 4,7-dihydro-7-ethyl-2-nitro-4-oxo-thieno[2,3-b]pyridine-5-carboxylic acid, reference compound]	> 100 µg/mL	> 100 µg/mL	3.12 µg/mL (≈ 11.6 µM)	3.12 µg/mL (≈ 11.6 µM)	3.12 µg/mL (≈ 11.6 µM)	> 100 µg/mL	50 µg/mL (≈ 186 µM)	3.12 µg/mL (≈ 11.6 µM)	3.12 µg/mL (≈ 11.6 µM)	25 µg/mL (≈ 93.2 µM)	> 100 µg/mL	> 100 µg/mL	> 100 µg/mL	6.25 µg/mL (≈ 23.3 µM)	12.5 µg/mL (≈ 46.6 µM)	12.5 µg/mL (≈ 46.6 µM)	12.5 µg/mL (≈ 46.6 µM)	50 µg/mL (≈ 186 µM)	25 µg/mL (≈ 93.2 µM)	6.25 µg/mL (≈ 23.3 µM)	
CCn1cc(C(=O)O)c(=O)c2cc(C=Nc3ccccc3)sc21 [Compound J, 4,7-Dihydro-7-ethyl-2-N-phenyl-iminomethyl-4-oxo-thieno[2,3-b]pyridine-5-carboxylic acid]	> 100 µg/mL	> 100 µg/mL	3.12 µg/mL (≈ 9.56 µM)	3.12 µg/mL (≈ 9.56 µM)	3.12 µg/mL (≈ 9.56 µM)	> 100 µg/mL	50 µg/mL (≈ 153 µM)	3.12 µg/mL (≈ 9.56 µM)	3.12 µg/mL (≈ 9.56 µM)	25 µg/mL (≈ 76.6 µM)	> 100 µg/mL	> 100 µg/mL	> 100 µg/mL	6.25 µg/mL (≈ 19.1 µM)	12.5 µg/mL (≈ 38.3 µM)	12.5 µg/mL (≈ 38.3 µM)	12.5 µg/mL (≈ 38.3 µM)	50 µg/mL (≈ 153 µM)	25 µg/mL (≈ 76.6 µM)	6.25 µg/mL (≈ 19.1 µM)	
